According to patent EP2963052A2, “PEPTIDES WITH CYTOPROTECTIVE ACTIVITY” (Zamerton Holdings Limited, priority 2013, dated 2016):
Residues, ends and D or L forms follow the SMILES beside them.

How the values were obtained:
[1] = Stability of peptides in storage in solution (HPLC analysis); details: 0.05 M ammonium acetate buffer, approx. 1 mg/ml
Description: The peptides were dissolved in 0.05 M of an ammonium acetate buffer with pH 4.5 and pH 7.5 so that their concentrations achieved approximately 1 mg/ml. The solutions were sterilely filtered and kept in sterile, well-sealed vials. Upon expiration of the storage period the substances were analyzed with HPLC.

NIH 3T3 cells = test: Protective effect of peptides on apoptosis and necrosis in the presence of camptothecin (Annexin-V FITC / PI flow cytofluorimetry); assay type: cell-based, mice; details: NIH3T3 cell culture, 24 hours
Source text: (§1) The experiments to study the effect of peptides on apoptosis and necrosis involved the use of reagents in the ApoTarget Annexin-V FITC Apoptosis Kit (Invitrogen, CIIIA). In addition to Annexin-V, marked by the FITC fluorescent stain, the ApoTarget Annexin-V FITC Apoptosis Kit contains propidium iodide (PI), a dye. PI can permeate only those cells whose cytoplasmic membrane is damaged, which is a characteristic sign of an advanced stage of apoptosis or necrosis. Having permeated cells with damaged cell membrane, PI binds itself to the DNA. The «red» fluorescence of resulting complexes is identified with a flow cytofluorimeter.
(§2) Therefore, the procedure of double staining (Annexin-V FITC plus PI) and the process of flow cytofluorimetry can be used to distinguish 3 cell populations and determine their percentage relationship: 1) non-apoptotic cells (Annexin-V-negative and PI-negative), 2) cells at an early stage of apoptosis (Annexin-V-positive and PI-negative), 3) necrotic cells or cells at an advanced stage of apoptosis (Annexin-V- positive and PI- positive). An increase in the percentage of apoptotic and necrotic cells can serve as a measure of how the compounds added to the culture medium act on these processes. Camptothecin (Camptothecin, Sigma, CIIIA), which is recommended by the manufacturer, was used as control in the experiments because of its pronounced ability to induce apoptosis and necrosis of cells, especially tumor ones.
(§3) Peptide solutions in sterile PBS with concentrations of 1 mg/ml were prepared immediately before the experiments to study the peptides' effect on apoptosis and necrosis. The same solutions that were stored in sterile test tubes at +4°C were used to study the proliferation activity. Working dilutions of peptides in the cell cultivation medium were prepared on the day of each experiment. A sterile plastic 96-well plate (Corning, USA) was used for this purpose. The dilutions were prepared so that the introduction of 25 µl of each working dilution in an experimental well with cultivated cells would result in final concentrations of peptides equal to 400, 200, 100 and 50 ng/ml.
(§4) The HeLa S3 and NIH 3T3 cells were cultivated with the use of reagents manufactured by Invitrogen (USA) and plastic vials, plates, pipettes and filters of Corning (USA). The cells were cultivated in DMEM, prepared with a dry concentrate dissolved in pyrogen-free distilled water (Millipore, USA). The medium contained 10 % FBS, 2 mM of glutamine and penicillin-streptomycin (diluted according to the vendor's recommendations). HeLa S3 and NIH 3T3 were grown in vials T150 at +37 °C in the atmosphere of 5.6 % CO2. The cells were constantly maintained in the logarithmic growth phase, to this end they were passed at least 2 times a week, with trypsin used to remove cells from the walls of the culture vials. Live cells were counted in a hemacytometer after staining the suspension aliquot with trypan blue.
(§5) The HeLa S3 and NIH 3T3 cells were removed from the surface of the culture vials and counted; the concentration was moved to 10^5 cell/ml, and the resulting suspensions were put in doses of 1 ml in the wells of a 24-well plate.
(§6) Having made sure on the following day that the cells adhered to the plate's surface, the culture medium was replaced with a fresh one in each well.
(§7) Camptothecin was added in the control wells (positive control - stimulation of apoptosis and necrosis) to the final concentration of 50 µM that had been determined in preliminary experiments with the NIH 3T3 and HeLa S3 cells. 25 µl of fresh culture medium were added in the control wells (negative control), 25 µl of working peptide dilutions were added in each experimental well (each working dilution - twice), as well as camptothecin in the same final concentration. Incubation was conducted at +37 °C. […]

HeLa S3 cells = test: as above; assay type: cell-based, human; details: HeLa cell culture, 24 hours
Source text: as §1, §2, §3, §4, §5, §6, §7

Annexin-V = biological target: T1, Annexin-V (Homo sapiens, UniProt P08758); details: calcium-dependent phospholipid binding; cited from earlier work
T1 sequence (P08758 1-320): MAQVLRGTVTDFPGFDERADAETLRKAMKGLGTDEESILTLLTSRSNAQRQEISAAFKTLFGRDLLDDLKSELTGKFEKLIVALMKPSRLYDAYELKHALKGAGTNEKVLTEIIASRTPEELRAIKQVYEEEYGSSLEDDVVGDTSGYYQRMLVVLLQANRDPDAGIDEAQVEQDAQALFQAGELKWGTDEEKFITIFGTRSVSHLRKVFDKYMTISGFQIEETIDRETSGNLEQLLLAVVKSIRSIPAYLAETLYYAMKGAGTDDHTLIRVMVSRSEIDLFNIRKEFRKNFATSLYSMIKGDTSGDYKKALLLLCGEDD

[2] = peptide 50 ng/ml + camptothecin 50 µM
[3] = peptide 100 ng/ml + camptothecin 50 µM
[4] = peptide 200 ng/ml + camptothecin 50 µM
[5] = peptide 400 ng/ml + camptothecin 50 µM

Compound | Peptide stability in storage ([1]; 1hour, pH 4.5, 22°C) | Peptide stability in storage ([1]; 1hour, pH 7.5, 22°C) | Peptide stability in storage ([1]; 10 days, pH 4.5, 22°C) | Peptide stability in storage ([1]; 10 days, pH 7.5, 22°C) | Apoptosis (NIH 3T3 cells; [2]) [%] | Necrosis (NIH 3T3 cells; [2]) [%] | Apoptosis (NIH 3T3 cells; [3]) [%] | Necrosis (NIH 3T3 cells; [3]) [%] | Apoptosis (NIH 3T3 cells; [4]) [%] | Necrosis (NIH 3T3 cells; [4]) [%] | Apoptosis (NIH 3T3 cells; [5]) [%] | Necrosis (NIH 3T3 cells; [5]) [%] | Apoptosis (HeLa S3 cells; [2]) [%] | Necrosis (HeLa S3 cells; [2]) [%] | Apoptosis (HeLa S3 cells; [3]) [%] | Necrosis (HeLa S3 cells; [3]) [%] | Apoptosis (HeLa S3 cells; [4]) [%] | Necrosis (HeLa S3 cells; [4]) [%] | Apoptosis (HeLa S3 cells; [5]) [%] | Necrosis (HeLa S3 cells; [5]) [%] | also measured
C[C@H](N)C(=O)N[C@@H](CC(=O)O)C(=O)N[C@@H](CCC(=O)O)C(=O)N[C@@H](CCCNC(=N)N)C(=O)O [ADER, H-Ala-Asp-Glu-Arg-OH] (H-ADER-OH) | 98.1 | 98.1 | 98.0 | 98.0 | 3 | 4 | 2.2 | 3.1 | 2.5 | 3.5 | 4.1 | 5 | 2 | 5.2 | 2.1 | 4.1 | 1.5 | 4 | 2.3 | 4 | Peptide stability in storage ([1]; 30 days, pH 4.5, 22°C): 97.9; Peptide stability in storage ([1]; 30 days, pH 7.5, 22°C): 97.7; Peptide stability in storage ([1]; 60 days, pH 4.5, 22°C): 98.0; Peptide stability in storage ([1]; 60 days, pH 7.5, 22°C): 97.7; Peptide stability in storage ([1]; 90 days, pH 4.5, 22°C): 97.8; Peptide stability in storage ([1]; 90 days, pH 7.5, 22°C): 97.6
CC(=O)N[C@@H](CC(=O)O)C(=O)N[C@@H](CCC(=O)O)C(=O)O [AcDE, Ac-Asp-Glu-OH] (Ac-Asp-Glu-OH) |  |  |  |  | 35 | 50 | 30 | 46 | 22 | 34 | 19 | 28 | 21 | 13 | 17 | 11 | 15 | 8 | 22 | 7 | 
phosphatidylcholine |  |  |  |  |  |  |  |  |  |  |  |  |  |  |  |  |  |  |  |  | Kd (Annexin-V): 0.5 nM

Second part, led by results:

Peptide stability in storage ([1]; 1hour, pH 4.5, 22°C) | Peptide stability in storage ([1]; 1hour, pH 7.5, 22°C) | Peptide stability in storage ([1]; 10 days, pH 4.5, 22°C) | Peptide stability in storage ([1]; 10 days, pH 7.5, 22°C) | Compound | Apoptosis (NIH 3T3 cells; [2]) [%] | Necrosis (NIH 3T3 cells; [2]) [%] | Apoptosis (NIH 3T3 cells; [3]) [%] | Necrosis (NIH 3T3 cells; [3]) [%] | Apoptosis (NIH 3T3 cells; [4]) [%] | Necrosis (NIH 3T3 cells; [4]) [%] | Apoptosis (NIH 3T3 cells; [5]) [%] | Necrosis (NIH 3T3 cells; [5]) [%] | Apoptosis (HeLa S3 cells; [2]) [%] | Necrosis (HeLa S3 cells; [2]) [%] | Apoptosis (HeLa S3 cells; [3]) [%] | Necrosis (HeLa S3 cells; [3]) [%] | Apoptosis (HeLa S3 cells; [4]) [%] | Necrosis (HeLa S3 cells; [4]) [%] | Apoptosis (HeLa S3 cells; [5]) [%] | Necrosis (HeLa S3 cells; [5]) [%] | also measured
98.1 | 98.2 | 98.3 | 98.2 | CCNC(=O)[C@H](CCC(=O)O)NC(=O)[C@@H](N)CC(=O)O [DENHEt, H-Asp-Glu-NH-CH2-CH3] (HELM PEPTIDE1{D.E.[CCN[*:1]]}$$$$V2.0) | 25 | 13 | 23 | 12 | 21 | 11 | 18 | 7 | 15 | 20 | 9 | 18 | 8 | 13 | 8 | 16 | Peptide stability in storage ([1]; 30 days, pH 4.5, 22°C): 98.15; Peptide stability in storage ([1]; 30 days, pH 7.5, 22°C): 98.10; Peptide stability in storage ([1]; 60 days, pH 4.5, 22°C): 98.0; Peptide stability in storage ([1]; 60 days, pH 7.5, 22°C): 98.0; Peptide stability in storage ([1]; 90 days, pH 4.5, 22°C): 97.9; Peptide stability in storage ([1]; 90 days, pH 7.5, 22°C): 97.85
96.5 | 96.5 | 96.4 | 96.4 | H-Leu-Asp-Glu-OH [LDE] | 2 | 3.7 | 2.5 | 3.8 | 1.6 | 3.5 | 2.5 | 3.4 | 1 | 2.5 | 1.4 | 3.1 | 0.5 | 2.2 | 1 | 2.1 | Peptide stability in storage ([1]; 30 days, pH 4.5, 22°C): 96.4; Peptide stability in storage ([1]; 30 days, pH 7.5, 22°C): 96.4; Peptide stability in storage ([1]; 60 days, pH 4.5, 22°C): 96.2; Peptide stability in storage ([1]; 60 days, pH 7.5, 22°C): 96.2; Peptide stability in storage ([1]; 90 days, pH 4.5, 22°C): 96.2; Peptide stability in storage ([1]; 90 days, pH 7.5, 22°C): 95.6
98.1 | 98.1 | 98.0 | 97.7 | H-Val-Asp-Glu-OH [VDE] | 3.5 | 5 | 1.8 | 2 | 2.2 | 3 | 3 | 4 | 2.2 | 3.1 | 3.1 | 3.6 | 3.5 | 4 | 2 | 2.4 | Peptide stability in storage ([1]; 30 days, pH 4.5, 22°C): 97.6; Peptide stability in storage ([1]; 30 days, pH 7.5, 22°C): 97.6; Peptide stability in storage ([1]; 60 days, pH 4.5, 22°C): 97.55; Peptide stability in storage ([1]; 60 days, pH 7.5, 22°C): 97.55; Peptide stability in storage ([1]; 90 days, pH 4.5, 22°C): 97.55; Peptide stability in storage ([1]; 90 days, pH 7.5, 22°C): 97.2
98.0 | 98.0 | 98.1 | 98.0 | COC(=O)[C@H](CCC(=O)O)NC(=O)[C@@H](N)CC(=O)O [DEOMe, H-Asp-Glu-OCH3] (HELM PEPTIDE1{D.E.[CO[*:1]]}$$$$V2.0) | 4 | 6 | 2.5 | 4 | 3 | 5 | 3.3 | 6 | 4 | 5 | 2.1 | 4.5 | 2.3 | 4.5 | 2.5 | 5.5 | Peptide stability in storage ([1]; 30 days, pH 4.5, 22°C): 97.7; Peptide stability in storage ([1]; 30 days, pH 7.5, 22°C): 97.65; Peptide stability in storage ([1]; 60 days, pH 4.5, 22°C): 97.55; Peptide stability in storage ([1]; 60 days, pH 7.5, 22°C): 97.5; Peptide stability in storage ([1]; 90 days, pH 4.5, 22°C): 97.5; Peptide stability in storage ([1]; 90 days, pH 7.5, 22°C): 97.2
